According to ChEMBL document CHEMBL3880410, “Novel oxabispidine compounds and their use in the treatment of cardiac arrhythmias” (2009):

Test system: Cavia porcellus
Assay: Anti-cardiac arrhythmia activity in anaesthetised guinea pig assessed as cumulative dose inducing prolongation of monophasic action potential duration by 10% from baseline administered as first dose infusion in 0.2 mL/kg into jugular vein catheter for 30 secs followed by next dosing after 5 mins for 6 to 10 consecutive times by electrophysiology based assay
Type: functional

Row | SMILES | D10
1 | CN(CCN1CC2CN(CCc3ccc(F)c(F)c3)CC(C1)O2)S(=O)(=O)c1ccc(C#N)cc1 | >5.5 mg/kg
2 | N#Cc1ccc(OCCN2CC3CN(CCNS(=O)(=O)c4ccc5c(c4)CCO5)CC(C2)O3)c(F)c1 | >5.5 mg/kg
3 | O=S(=O)(NCCN1CC2CN(CCc3cccc(F)c3)CC(C1)O2)c1ccc(F)cc1 | >5.5 mg/kg
4 | N#Cc1ccc(S(=O)(=O)NCCN2CC3CN(CCc4ccccc4)CC(C2)O3)cc1 | >5.5 mg/kg
5 | N#Cc1ccc(OCCN2CC3CN(CCNS(=O)(=O)c4ccc(F)cc4F)CC(C2)O3)cc1 | >5.5 mg/kg
6 | CN(CCN1CC2CN(Cc3ccc(C#N)cc3)CC(C1)O2)S(=O)(=O)c1ccc(C#N)cc1 | >5.5 mg/kg
7 | CN(CCN1CC2CN(Cc3ccccc3)CC(C1)O2)S(=O)(=O)c1ccc(C#N)cc1 | >5.5 mg/kg
8 | N#Cc1ccc(S(=O)(=O)NCCCN2CC3CN(CCc4ccc(F)cc4)CC(C2)O3)cc1 | >5.5 mg/kg
9 | CN(CCN1CC2CN(Cc3ccc(C#N)cc3F)CC(C1)O2)S(=O)(=O)c1ccc(C#N)cc1 | >5.5 mg/kg
10 | CN(CCN1CC2CN(Cc3ccc(F)cc3)CC(C1)O2)S(=O)(=O)c1ccc(C#N)cc1 | >5.5 mg/kg
11 | O=S(=O)(NCCN1CC2CN(CCc3ccccc3F)CC(C1)O2)c1ccc(F)cc1 | >5.5 mg/kg
12 | N#Cc1ccc(S(=O)(=O)NCCCN2CC3CN(CCc4c(F)cccc4F)CC(C2)O3)cc1 | >5.5 mg/kg
13 | N#Cc1ccc(S(=O)(=O)NCCN2CC3CN(CCc4ccc(Cl)cc4)CC(C2)O3)cc1 | >5.5 mg/kg
14 | CN(CCN1CC2CN(CCOc3ccc(C#N)cc3)CC(C1)O2)S(=O)(=O)c1ccc2c(c1)CCO2 | >5.5 mg/kg
15 | N#Cc1ccc(S(=O)(=O)NCCCN2CC3CN(CCc4ccccc4F)CC(C2)O3)cc1 | >5.5 mg/kg
16 | N#Cc1ccc(S(=O)(=O)NCCCN2CC3CN(CCc4cccc(F)c4)CC(C2)O3)cc1 | >5.5 mg/kg
17 | CN(CCN1CC2CN(CCOc3ccc(C#N)cc3F)CC(C1)O2)S(=O)(=O)c1ccc2c(c1)CCO2 | >5.5 mg/kg
18 | N#Cc1ccc(S(=O)(=O)NCCN2CC3CN(CCCOc4ccc(F)cc4F)CC(C2)O3)cc1 | >5.5 mg/kg
19 | Cc1noc(C)c1CN1CC2CN(CCS(=O)(=O)NCc3ccc(C#N)cc3)CC(C1)O2 | >5.5 mg/kg
20 | N#Cc1ccc(S(=O)(=O)NCCN2CC3CN(CCc4ccc(C(F)(F)F)cc4)CC(C2)O3)cc1 | >5.5 mg/kg
21 | N#Cc1ccc(S(=O)(=O)NCCN2CC3CN(CCc4ccc(F)cc4F)CC(C2)O3)cc1 | >5.5 mg/kg
22 | O=S(=O)(NCCN1CC2CN(Cc3ccc(F)cc3)CC(C1)O2)c1ccc(F)cc1 | >5.5 mg/kg
23 | O=S(=O)(NCCN1CC2CN(CCc3ccc(F)cc3)CC(C1)O2)c1ccc(F)cc1 | >5.5 mg/kg
24 | N#Cc1ccc(S(=O)(=O)NCCCN2CC3CN(CCCOc4ccc(F)cc4)CC(C2)O3)cc1 | >5.5 mg/kg
25 | N#Cc1ccc(CCN2CC3CN(CCNS(=O)(=O)c4ccc(F)cc4)CC(C2)O3)cc1 | >5.5 mg/kg
26 | N#Cc1ccc(OCCN2CC3CN(CCNS(=O)(=O)c4cccc(F)c4)CC(C2)O3)c(F)c1 | >5.5 mg/kg
27 | Cc1noc(C)c1S(=O)(=O)NCCN1CC2CN(CCOc3ccc(C#N)cc3F)CC(C1)O2 | >5.5 mg/kg

Row | SMILES | D10
28 | N#Cc1ccc(OCCN2CC3CN(CCNS(=O)(=O)c4ccc(F)cc4)CC(C2)O3)c(F)c1 | >5.5 mg/kg
29 | CN(CCN1CC2CN(CCc3ccc(Cl)cc3)CC(C1)O2)S(=O)(=O)c1ccc(C#N)cc1 | >5.5 mg/kg
30 | O=S(=O)(NCCN1CC2CN(CCc3ccccc3)CC(C1)O2)c1ccc(F)cc1 | >5.5 mg/kg
31 | N#Cc1ccc(OCCN2CC3CN(CCCNS(=O)(=O)c4ccccc4)CC(C2)O3)c(F)c1 | >5.5 mg/kg
32 | CN(CCN1CC2CN(CCc3ccccc3F)CC(C1)O2)S(=O)(=O)c1ccc(C#N)cc1 | >5.5 mg/kg
33 | CN(CCN1CC2CN(CCc3ccc(F)cc3F)CC(C1)O2)S(=O)(=O)c1ccc(C#N)cc1 | >5.5 mg/kg
34 | N#Cc1ccc(S(=O)(=O)NCCN2CC3CN(Cc4noc5ccccc45)CC(C2)O3)cc1 | >5.5 mg/kg
35 | N#Cc1ccc(OCCN2CC3CN(CCNS(=O)(=O)Cc4ccccc4)CC(C2)O3)c(F)c1 | >5.5 mg/kg
36 | N#Cc1ccc(S(=O)(=O)NCCCN2CC3CN(CCOc4c(F)cccc4F)CC(C2)O3)cc1 | >5.5 mg/kg
37 | N#Cc1ccc(S(=O)(=O)NCCN2CC3CN(CCc4c(F)cccc4F)CC(C2)O3)cc1 | >5.5 mg/kg
38 | CN(CCN1CC2CN(CCCOc3ccc(F)cc3F)CC(C1)O2)S(=O)(=O)c1ccc(C#N)cc1 | >5.5 mg/kg
39 | N#Cc1ccc(S(=O)(=O)NCCCN2CC3CN(Cc4ccc(F)cc4)CC(C2)O3)cc1 | >5.5 mg/kg
40 | N#Cc1ccc(S(=O)(=O)NCCN2CC3CN(CCc4ccccc4F)CC(C2)O3)cc1 | >5.5 mg/kg
41 | CN(CCN1CC2CN(CCCOc3ccc(F)cc3)CC(C1)O2)S(=O)(=O)c1ccc(C#N)cc1 | >5.5 mg/kg
42 | N#Cc1ccc(CN2CC3CN(CCNS(=O)(=O)c4ccc(F)cc4)CC(C2)O3)cc1 | >5.5 mg/kg
43 | CN(CCN1CC2CN(CCc3ccccc3)CC(C1)O2)S(=O)(=O)c1ccc(C#N)cc1 | >5.5 mg/kg
44 | N#Cc1ccc(S(=O)(=O)NCCCN2CC3CN(Cc4ccccc4)CC(C2)O3)cc1 | >5.5 mg/kg
45 | N#Cc1ccc(S(=O)(=O)NCCN2CC3CN(Cc4ccc(C#N)cc4F)CC(C2)O3)cc1 | >5.5 mg/kg
46 | CN(CCN1CC2CN(CCc3cccc(F)c3)CC(C1)O2)S(=O)(=O)c1ccc(C#N)cc1 | >5.5 mg/kg
47 | N#Cc1ccc(CN2CC3CN(CCCNS(=O)(=O)c4ccc(C#N)cc4)CC(C2)O3)cc1 | >5.5 mg/kg
48 | N#Cc1ccc(CNS(=O)(=O)CCN2CC3CN(CCc4ccc(F)cc4)CC(C2)O3)cc1 | >5.5 mg/kg
49 | N#Cc1cccc(S(=O)(=O)NCCN2CC3CN(CCOc4ccc(C#N)cc4F)CC(C2)O3)c1 | >5.5 mg/kg
50 | CN(CCCN1CC2CN(CCOc3ccc(C#N)cc3F)CC(C1)O2)S(=O)(=O)c1ccccc1 | >5.5 mg/kg
51 | N#Cc1ccc(OCCN2CC3CN(CCNS(=O)(=O)c4ccccc4)CC(C2)O3)c(F)c1 | >5.5 mg/kg
52 | CN(CCN1CC2CN(CCOc3c(F)cccc3F)CC(C1)O2)S(=O)(=O)c1ccc(C#N)cc1 | >5.5 mg/kg
53 | N#Cc1ccc(S(=O)(=O)NCCCN2CC3CN(CCc4ccc(F)c(F)c4)CC(C2)O3)cc1 | >5.5 mg/kg
54 | CN(CCN1CC2CN(CCc3ccc(F)cc3)CC(C1)O2)S(=O)(=O)c1ccc(C#N)cc1 | >5.5 mg/kg
